Measurements: patent US20250332173A1, “COMPOUNDS AND METHODS FOR MODULATING NUCLEIC ACID SPLICING” (REMIX THERAPEUTICS INC., priority 2021, published 2025)

Test system: Target C
Assay: RT-qPCR splicing assay panel, Target C canonical junction (CJ) mRNA
Format: cell-based, human
Details: Homo sapiens; Table 5 panel; canonical junction qPCR; compound concentration having 50% response in CJ decrease; read-out: Target C IC50 (decrease in CJ mRNA levels)
How it was run: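 Canonical-junction transcript levels in compound-treated A673 or K562 cells (24 h, up to 10 uM final) were determined from lysates by RT-qPCR with housekeeping-gene normalization.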

| IC50 [µM] | Structure (SMILES) |
| --- | --- |
| > 10 | Cc1cn2cc(-c3ccc4c(=O)n([C@H]5CCNC5)cc(C)c4c3)cc(C#N)c2n1 [Compound 456, (S)-2-methyl-6-(4-methyl-1-oxo-2-(pyrrolidin-3-yl)-1,2-dihydroisoquinolin-6-yl)imidazo[1,2-a]pyridine-8-carbonitrile] |
| 0.1 to 1 | Cc1cn2cc(-c3cc(F)c4c(=O)n(C5CCNCC5)cc(C)c4c3)cc(F)c2n1 [Compound 461, 8-fluoro-6-{8-fluoro-2-methylimidazo[1,2-a]pyridin-6-yl}-4-methyl-2-(piperidin-4-yl)isoquinolin-1-one] |
| > 10 | Cc1cn2nc(-c3cc(O)c4c(=O)n(C5CCNC5)cc(C)c4c3)cc(C)c2n1 (stereo not drawn) [Compound 462] |
| > 10 | Cn1cc2c(n1)CCN(c1ccc3c(=O)n(C4CCNCC4)ccc3c1)C2 [Compound 509, 6-{2-methyl-4H,6H,7H-pyrazolo[4,3-c]pyridin-5-yl}-2-(piperidin-4-yl)isoquinolin-1-one] |
| 1 to 10 | Cc1cn2cc(-c3ccc4c(=O)n(C5CCNC6(CC6)C5)ncc4c3)cc(Cl)c2n1 (stereo not drawn) [Compound 510] |
| 1 to 10 | Cn1cc2nc(-c3ccc4c(=O)n(C5CCNC6(CC6)C5)ncc4c3)ccc2n1 (stereo not drawn) [Compound 511] |
